Values quoted from earlier work as cited in patent publication US8617286B2, “Method for increasing crop yield” (priority 2010, dated 2013).

Test system: nitrification of ammonia nitrogen into nitrate
Conditions: general statement, no test described

Structure (SMILES): N#CN=C(N)N [DCD, dicyandiamide]
- slowing of nitrification of ammonia nitrogen into nitrate: about 80%
